Laboratory results: patent publication US20140155384A1, “COMPOUNDS AND METHODS OF TREATING DIABETES” (Medivation Technologies, Inc., priority 2011, published 2014)

How the values were obtained:
[1] = biological target: T1, rat adrenergic α1B receptor (Rattus norvegicus, UniProt P15823); assay: Radioligand binding, adrenergic α1B receptor ([3H]Prazosin); conditions: 0.1 μM compound, Wistar rat liver, read-out: Percentage inhibition of ligand binding, Adrenergic α1B
T1 construct: rat adrenergic α1B receptor obtained from Wistar Rat liver; from tissue; host or cells: Wistar rat liver
T1 sequence (P15823 1-515): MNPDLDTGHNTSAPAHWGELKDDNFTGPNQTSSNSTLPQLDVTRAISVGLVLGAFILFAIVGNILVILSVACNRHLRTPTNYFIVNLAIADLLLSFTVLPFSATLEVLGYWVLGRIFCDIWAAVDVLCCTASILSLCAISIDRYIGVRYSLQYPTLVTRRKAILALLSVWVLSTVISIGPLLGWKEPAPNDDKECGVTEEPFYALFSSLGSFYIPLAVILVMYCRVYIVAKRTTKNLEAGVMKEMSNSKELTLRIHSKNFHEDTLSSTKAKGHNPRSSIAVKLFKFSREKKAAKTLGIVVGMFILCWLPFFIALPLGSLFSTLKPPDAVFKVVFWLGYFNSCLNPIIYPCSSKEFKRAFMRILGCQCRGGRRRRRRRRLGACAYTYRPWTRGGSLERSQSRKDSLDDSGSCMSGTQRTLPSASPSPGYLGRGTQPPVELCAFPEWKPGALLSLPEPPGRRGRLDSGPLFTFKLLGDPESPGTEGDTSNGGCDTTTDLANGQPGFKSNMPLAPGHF
Method in brief: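 Wistar rat liver α1B receptor preparation incubated with 0.25 nM [3H]prazosin and compound for 60 min at 25° C in 50 mM Tris-HCl pH 7.4, 0.5 mM EDTA; nonspecific binding defined with 10 μM phentolamine.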

[2] = biological target: T2, human recombinant adrenergic α1D receptor (Homo sapiens, UniProt P25100); assay: Radioligand binding, adrenergic α1D receptor ([3H]Prazosin); conditions: 0.1 μM compound; HEK-293 cells; 0.6 nM [3H]Prazosin; read-out: Percentage inhibition of ligand binding, Adrenergic α1D
T2 construct: expressed in transfected cells; host or cells: HEK-293
T2 sequence (P25100 1-572): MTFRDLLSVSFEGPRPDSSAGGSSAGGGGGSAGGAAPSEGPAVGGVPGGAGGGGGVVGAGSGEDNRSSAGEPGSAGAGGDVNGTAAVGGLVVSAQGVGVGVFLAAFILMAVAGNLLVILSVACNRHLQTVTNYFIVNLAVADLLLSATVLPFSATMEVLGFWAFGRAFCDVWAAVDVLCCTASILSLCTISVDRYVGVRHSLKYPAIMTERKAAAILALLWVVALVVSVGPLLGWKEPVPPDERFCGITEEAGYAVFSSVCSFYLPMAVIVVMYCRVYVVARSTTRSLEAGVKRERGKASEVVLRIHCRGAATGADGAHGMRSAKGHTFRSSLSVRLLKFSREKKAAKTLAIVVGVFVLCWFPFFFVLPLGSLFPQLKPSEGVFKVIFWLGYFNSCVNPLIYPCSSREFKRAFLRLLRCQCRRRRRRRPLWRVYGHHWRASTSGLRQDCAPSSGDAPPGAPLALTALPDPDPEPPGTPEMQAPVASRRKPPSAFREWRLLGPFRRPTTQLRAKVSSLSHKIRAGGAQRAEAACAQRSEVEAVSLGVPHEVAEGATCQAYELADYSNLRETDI
Method: Compounds were incubated with 0.6 nM [3H]Prazosin for 60 min at 25° C. Non-specific binding was estimated in the presence of 10 μM phentolamine. Receptor proteins were filtered and washed, the filters were then counted to determine [3H]Prazosin specifically bound. Compounds were screened at 1 μM or lower, using 1% DMSO as vehicle. Biochemical assay results are presented as the percent inhibition of specific binding in Table 2.

[3] = biological target: T3, human recombinant adrenergic α2A receptor (Homo sapiens, UniProt P08913); assay: Radioligand binding, adrenergic α2A receptor ([3H]MK-912); conditions: 0.1 μM compound; Sf9 cells; 1 nM [3H]MK-912; read-out: Percentage inhibition of ligand binding, Adrenergic α2A
T3 construct: expressed in transfected cells; host or cells: insect Sf9 cells
T3 sequence (P08913 1-465): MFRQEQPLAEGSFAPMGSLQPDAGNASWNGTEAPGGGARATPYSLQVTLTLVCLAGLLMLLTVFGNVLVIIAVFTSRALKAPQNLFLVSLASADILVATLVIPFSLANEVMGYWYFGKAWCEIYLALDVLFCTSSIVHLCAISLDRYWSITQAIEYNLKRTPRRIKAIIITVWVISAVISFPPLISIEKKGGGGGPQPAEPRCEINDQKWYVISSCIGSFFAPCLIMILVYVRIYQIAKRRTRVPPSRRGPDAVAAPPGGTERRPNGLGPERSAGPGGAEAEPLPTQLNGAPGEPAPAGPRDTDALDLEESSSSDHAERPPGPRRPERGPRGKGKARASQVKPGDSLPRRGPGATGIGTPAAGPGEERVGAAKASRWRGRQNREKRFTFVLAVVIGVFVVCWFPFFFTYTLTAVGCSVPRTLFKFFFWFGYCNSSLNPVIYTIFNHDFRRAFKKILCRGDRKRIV
Method in brief: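 Percent inhibition of specific [3H]MK-912 (1 nM) binding measured by filtration counting, compounds tested at ≤1 μM in 1% DMSO. Receptor: human α2A from Sf9 cells; incubation 60 min, 25 °C, pH 7.4; 10 μM WB-4101 defined nonspecific binding.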

[4] = biological target: T4, human recombinant adrenergic α2B receptor (Homo sapiens, UniProt P18089); assay: Radioligand binding, adrenergic α2B receptor ([3H]Rauwolscine); conditions: 0.1 μM compound, CHO-K1 cells, read-out: Percentage inhibition of ligand binding, Adrenergic α2B
T4 construct: expressed in transfected cells; host or cells: CHO-K1
T4 sequence (P18089 1-450): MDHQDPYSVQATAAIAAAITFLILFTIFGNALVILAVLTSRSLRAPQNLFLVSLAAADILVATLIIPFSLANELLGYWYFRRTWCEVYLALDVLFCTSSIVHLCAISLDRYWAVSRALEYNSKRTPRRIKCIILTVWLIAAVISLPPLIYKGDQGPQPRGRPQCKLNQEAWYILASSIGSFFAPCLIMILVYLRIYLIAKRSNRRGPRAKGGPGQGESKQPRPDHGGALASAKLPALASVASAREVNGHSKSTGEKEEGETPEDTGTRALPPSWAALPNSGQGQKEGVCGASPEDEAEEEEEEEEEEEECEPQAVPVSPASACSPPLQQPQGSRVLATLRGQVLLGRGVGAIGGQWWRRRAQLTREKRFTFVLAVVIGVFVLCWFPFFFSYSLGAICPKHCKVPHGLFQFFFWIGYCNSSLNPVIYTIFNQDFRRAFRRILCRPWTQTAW
Method in brief: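 Percent inhibition of specific [3H]Rauwolscine (2.5 nM) binding, compounds at ≤1 μM, 1% DMSO vehicle, 10 μM prazosin defining nonspecific. Receptor: human α2B expressed in CHO-K1 cells, 60 min incubation at 25 °C in Tris-HCl pH 7.4 buffer (MgCl2, EDTA, BSA); filtered, washed, counted.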

Row | inhibition at 0.1 µM [1] [%] | inhibition at 0.1 µM [2] [%] | inhibition at 0.1 µM [3] [%] | inhibition at 0.1 µM [4] [%] | Structure (SMILES)
1 | 7 | 14 | 73 | 60 | Cc1ccc2c(c1)c1c(n2-c2cccc(-c3ccc(S(N)(=O)=O)cc3)c2)CCN(C)C1 [Compound No. 158, 3′-(2,8-dimethyl-3,4-dihydro-1H-pyrido[4,3-b]indol-5(2H)-yl)biphenyl-4-sulfonamide]
2 | 10 | -3 | 17 | 7 | Cc1ccc2c(c1)c1c(n2-c2cccc(-c3cnc(N(C)C)nc3)c2)CCN(C)C1 [Compound 42, 5-(3-(2,8-dimethyl-3,4-dihydro-1H-pyrido[4,3-b]indol-5(2H)-yl)phenyl)-N,N-dimethylpyrimidin-2-amine]
